Laboratory results taken from publication PMC8041284, “Tunable Methacrylamides for Covalent Ligand Directed Release Chemistry” (Journal of the American Chemical Society, 2021).
Like-named read-outs stand apart in the source and are kept apart here.

Biological target: BTK (Homo sapiens, UniProt Q06187)
Experiment: biochemical
[1] = read-out: BTK inhibition (%), 0.75 uM BTK, […] probe 3l, 15 min preincubation

Sequence of BTK (Q06187 402-655 limits assumed): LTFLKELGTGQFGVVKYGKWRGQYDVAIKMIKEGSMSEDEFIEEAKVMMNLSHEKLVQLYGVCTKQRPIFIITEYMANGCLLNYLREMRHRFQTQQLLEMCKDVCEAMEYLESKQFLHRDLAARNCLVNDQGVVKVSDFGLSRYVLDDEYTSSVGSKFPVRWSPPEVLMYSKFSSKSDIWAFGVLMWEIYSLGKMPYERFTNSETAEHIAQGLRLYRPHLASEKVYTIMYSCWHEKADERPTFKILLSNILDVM

| SMILES | inhibition at 10 µM [1] [%] | inhibition at 10 µM (read-out: BTK inhibition (%)) [%] |
| --- | --- | --- |
| CCCNC(C)C(=O)Nc1c(C)csc1C(=O)OC (centres unmarked) [PCM-0086324] | -13.2 |  |
| NC(=O)[C@@H](CCC(F)(F)F)N(Cc1ccc(-c2ncon2)cc1F)S(=O)(=O)c1ccc(Cl)cc1 [PCM-0214565] | 9.3 |  |
| O=C(/C=C/c1ccccc1)NC(NC(=S)Nc1ccc(Cl)cc1)C(Cl)(Cl)Cl (centres unmarked) [PCM-0095765] | 34 |  |
| COc1cccc2c1C(=O)c1c(O)c3c(c(O)c1C2=O)C[C@@](O)(C(=O)CO)C[C@@H]3O[C@H]1C[C@H](N)[C@H](O)[C@H](C)O1 [PCM-0086032] | 42.8 |  |
| CCCCC(CC)COC(=O)C(C#N)=C(c1ccccc1)c1ccccc1 (centres unmarked) [PCM-0215898] | 0 |  |
| CC(C)N(CCCCOCC(=O)NS(C)(=O)=O)c1cnc(-c2ccccc2)c(-c2ccccc2)n1 [PCM-0214894] | 11.7 |  |
| CCOc1nc2cccc(C(=O)OC(C)OC(=O)OC3CCCCC3)c2n1Cc1ccc(-c2ccccc2-c2nn[nH]n2)cc1 (centres unmarked) [PCM-0090385] | 53.7 |  |
| C#C[C@]1(O)CC[C@H]2[C@@H]3CCc4cc(OC)ccc4[C@H]3CC[C@@]21C [PCM-0214662] | 8.6 |  |
| S=C=Nc1cccc(NC(=S)NCCCCNC(=S)Nc2cccc(N=C=S)c2)c1 [PCM-0095477] |  | 38.9 |
| CC(C)Oc1ccc(-c2cnc3c(-c4ccnc5ccccc45)cnn3c2)cc1 [PCM-0215300] | -1.5 |  |
| CC[C@H]1CN2CC[C@H]1C[C@H]2[C@H](O)c1ccnc2ccc(OC)cc12 [PCM-0215969] | -13.1 |  |
| O=C(O)[C@H]1O[C@@H](Oc2cc3oc(-c4ccc(O)cc4)cc(=O)c3c(O)c2O)[C@H](O)[C@@H](O)[C@@H]1O [PCM-0215170] |  | 0 |
| C=C[C@]1(C)C[C@@H](OC(=O)CSC(C)(C)CNC(=O)[C@H](N)C(C)C)[C@]2(C)[C@H](C)CC[C@]3(CCC(=O)[C@H]32)[C@@H](C)[C@@H]1O [PCM-0214765] | 20.2 |  |
| Clc1cccc(-c2nnnn2Cc2cccnc2)c1Cl [PCM-0215469] | -0.8 |  |
| O=Cc1ccc(O)c(O)c1 [PCM-0215162] | 5.4 |  |
| Cn1ncc(Cl)c1-c1cc(C(=O)N[C@H](CN)Cc2ccc(F)c(F)c2)oc1Cl [PCM-0215609] | -7.6 |  |
| CCCCCCCCCCCC[N+](C)(C)CCOc1ccccc1 [PCM-0214763] | -14.8 |  |
| C/C=C(/C)C(=O)O[C@H]1c2cc(OC)c(OC)c(OC)c2-c2c(cc3c(c2OC)OCO3)C[C@H](C)[C@]1(C)O [PCM-0216333] | -25.5 |  |
| O=C1CCC(N2C(=O)c3ccccc3C2=O)C(=O)N1 (centres unmarked) [PCM-0064817] | 5.5 |  |
| Oc1ccc(/C=C/c2cc(O)cc(O)c2)cc1 [PCM-0065629] | 23.3 |  |
| N#C/C(=C1/SC[C@@H](c2ccc(Cl)cc2Cl)S1)n1ccnc1 [PCM-0214788] | 3.9 |  |
| CCCCC1=NC2(CCCC2)C(=O)N1Cc1ccc(-c2ccccc2-c2nn[nH]n2)cc1 [PCM-0090383] | 4.3 |  |
| CN[C@@H](C)C(=O)N[C@H]1CN(C(=O)CC(C)C)CC[C@H]2CC[C@@H](C(=O)NC(c3ccccc3)c3ccccc3)N2C1=O [PCM-0214841] | -9.3 |  |

| SMILES | inhibition at 10 µM [1] [%] | inhibition at 10 µM (read-out: BTK inhibition (%)) [%] |
| --- | --- | --- |
| COc1cc2c[n+](C)c3c4cc5c(cc4ccc3c2cc1OC)OCO5 [PCM-0216452] | 27.8 |  |
| CCOC(=O)CCNc1cc(N2CCc3ccccc3CC2)nc(-c2ccccn2)n1 [PCM-0095581] | -0.8 |  |
| COc1ccc2c(c1)c(CC(=O)O)c(C)n2C(=O)c1ccc(Cl)cc1 [PCM-0216635] | 10.8 |  |
| CC12CC3CC(C)(C1)CC(N)(C3)C2 [PCM-0064948] | 7.8 |  |
| COc1cc([C@H]2Oc3cc([C@H]4Oc5cc(O)cc(O)c5C(=O)[C@@H]4O)ccc3O[C@@H]2CO)ccc1O [PCM-0088703] | 24.1 |  |
| Nc1cccc(-c2cc3c(Oc4cccc(O)c4)ncnc3[nH]2)c1 [PCM-0095147] | 82.1 |  |
| CC(=O)O[C@]1(C)CC[C@@]23C[C@@H]1C(C)(C)[C@@H]2CC[C@H]3C [PCM-0215054] | 10.9 |  |
| COc1ncnc(NS(=O)(=O)c2ccc(N)cc2)c1OC [PCM-0086280] | 0.8 |  |
| O=S(=O)(O)c1cc(O)ccc1O [PCM-0086281] | 3.9 |  |
| COC(=O)N[C@H](C(=O)N1CCC[C@H]1C(=O)Nc1ccc([C@@H]2CC[C@@H](c3ccc(NC(=O)[C@@H]4CCCN4C(=O)[C@@H](NC(=O)OC)C(C)C)cc3)N2c2ccc(C(C)(C)C)cc2)cc1)C(C)C [PCM-0216056] | 18.5 |  |
| CO[C@@H]1[C@@H](O[C@@H]2O[C@H](C)[C@@H](O[C@H]3C[C@@](C)(O)[C@@H](O)[C@H](C)O3)[C@H](N(C)C)[C@H]2O)[C@@H](CC=O)C[C@@H](C)[C@@H](O[C@H]2CC[C@H](N(C)C)[C@@H](C)O2)/C=C/C=C/C[C@@H](C)OC(=O)C[C@H]1OC(C)=O [PCM-0214867] | 14 |  |
| C[C@@H](N)c1ccc(C(=O)Nc2ccnc3[nH]ccc23)cc1 [PCM-0215750] | -30.3 |  |
| CC(C)c1noc(N2CCC(COc3ccc(-c4ccc(S(C)(=O)=O)cc4)nc3)CC2)n1 [PCM-0095313] | -14 |  |
| C=CC(=O)Nc1cccc(Nc2nc(Nc3ccc(Oc4ccnc(C(=O)NC)c4)cc3)ncc2F)c1 [PCM-0215277] | 115 |  |
| CCCCCC/C=C\CCCCCCCc1cccc(O)c1C(=O)O [PCM-0216327] | 84.2 |  |
| C[C@@H]1[C@H](O)[C@@H](C)/C=C/C=C/C=C/C=C/C=C/C=C/C=C/[C@H](O[C@@H]2O[C@H](C)[C@@H](O)[C@H](N)[C@@H]2O)C[C@@H]2O[C@](O)(C[C@@H](O)C[C@@H](O)[C@H](O)CC[C@@H](O)C[C@@H](O)CC(=O)O[C@H]1C)C[C@H](O)[C@H]2C(=O)O [PCM-0214634] | -3.1 |  |
| CC(C)Cn1cnc2c(N)nc3ccccc3c21 [PCM-0086321] | -2.6 |  |
| O=C(O)c1cc(N=Nc2ccc(S(=O)(=O)Nc3ccccn3)cc2)ccc1O [PCM-0214740] | 48.3 |  |
| CN(c1ccccc1CNc1nc(Nc2ccc3c(c2)CC(=O)N3)ncc1C(F)(F)F)S(C)(=O)=O [PCM-0215410] | 91.7 |  |
| Cc1cc(C(=O)O)n[nH]1 [PCM-0216163] | -0.8 |  |
| COC(=O)c1ccc(O)c(C(=O)OC)c1 [PCM-0215105] | -13.1 |  |
| O=C(Nc1cn[nH]c1-c1nc2ccc(CN3CCOCC3)cc2[nH]1)NC1CC1 [PCM-0094942] | 93.8 |  |
| O=C(Cn1ccnc1[N+](=O)[O-])NCc1ccccc1 [PCM-0214934] | 3.1 |  |

| SMILES | inhibition at 10 µM [1] [%] | inhibition at 10 µM (read-out: BTK inhibition (%)) [%] |
| --- | --- | --- |
| Cc1ccccc1N1C(=O)c2cc(S(N)(=O)=O)c(Cl)cc2NC1C (centres unmarked) [PCM-0065217] | -4.7 |  |
| CN(C)CCNC(=O)c1cccn2c(=O)c3cc4ccccc4cc3nc12 [PCM-0215411] | 5.4 |  |
| COc1ccc(C(=O)C2CCN(CC(=O)N(Cc3nc4c(c(=O)[nH]3)COCC4)CC3CC3)CC2)cc1 [PCM-0215580] | -6.9 |  |
| CNC(=C[N+](=O)[O-])NCCSCc1csc(CN(C)C)n1 [PCM-0086495] | 2.1 |  |
| C/C=C/C=C/C(=O)O [PCM-0215158] | 0 |  |
| CN(C(=O)CNC(=O)/C=C/c1cccc(Cl)c1)C1CCS(=O)(=O)CC1 [PCM-0215630] | -13.9 |  |
| CC(=O)O[C@H]1[C@H]2[C@@H](OC(=O)Cc3ccccc3)[C@@H](C)C[C@]2(OC(C)=O)C(=O)/C(C)=C/[C@@H]2[C@H](CC[C@@]13CO3)C2(C)C [PCM-0215129] |  | -14 |
| C=C1C(=O)[C@]23[C@H](O)[C@H]1CC[C@H]2[C@@]12CO[C@]3(O)[C@@H](O)[C@@H]1C(C)(C)CC[C@@H]2O [PCM-0214681] | -1.6 |  |
| Nc1nc2c(ncn2COCCO)c(=O)[nH]1 [PCM-0064530] | -15.6 |  |
| CC(C)(O[C@@H]1O[C@H](CO)[C@@H](O)[C@H](O)[C@H]1O)[C@H]1Cc2cc3ccc(=O)oc3cc2O1 [PCM-0216505] | -1.5 |  |
| COc1cc(C(=O)O)ccc1NC(=O)[C@@H]1N[C@@H](CC(C)(C)C)[C@](C#N)(c2ccc(Cl)cc2F)[C@H]1c1cccc(Cl)c1F [PCM-0215391] | 27.8 |  |
| C[C@H](CCC(=O)O)[C@H]1CC[C@H]2[C@@H]3CC[C@@H]4C[C@H](O)CC[C@]4(C)[C@H]3C[C@H](O)[C@]12C [PCM-0214839] | 11.7 |  |
| CC1(C)[C@@H](OC(=O)CCC(=O)O)CC[C@]2(C)[C@H]3C(=O)C=C4[C@@H]5C[C@@](C)(C(=O)O)CC[C@]5(C)CC[C@@]4(C)[C@]3(C)CC[C@@H]12 [PCM-0215252] | 26.5 |  |
| Cc1cc(NC(=O)Nc2ccc(N(C)C)cc2)c2cc(F)cc(F)c2n1 [PCM-0095106] | 6.2 |  |
| C[C@@H]1CC[C@@]2(OC1)O[C@H]1C[C@H]3[C@@H]4CC=C5C[C@@H](O[C@@H]6O[C@H](CO)[C@@H](O[C@@H]7O[C@@H](C)[C@H](O[C@@H]8O[C@@H](C)[C@H](O)[C@@H](O)[C@H]8O)[C@@H](O)[C@H]7O)[C@H](O)[C@H]6O[C@@H]6O[C@@H](C)[C@H](O)[C@@H](O)[C@H]6O)CC[C@]5(C)[C@H]4CC[C@]3(C)[C@@]1(O)[C@@H]2C [PCM-0216432] | -12.4 |  |
| Cc1cc(/C=C/C#N)cc(C)c1Nc1ccnc(Nc2ccc(C#N)cc2)n1 [PCM-0215269] | 19.3 |  |
| CC(C)Oc1ccc(-c2nc(-c3cccc4c3CC[C@@H]4NCCO)no2)cc1C#N [PCM-0215588] | -5.5 |  |
| C[C@]12CC[C@@H]3c4ccc(O)cc4CC[C@H]3[C@@H]1C[C@@H](O)[C@@H]2O [PCM-0086283] | 5.4 |  |
| OC1CC2CCC(C1)N2 (centres unmarked) [PCM-0215141] | -1.6 |  |
| Cc1cccc(Nc2cc(Cl)nc(SCC(=O)O)n2)c1C [PCM-0095617] | 7.7 |  |
| C=CC(=O)Nc1cc(N2CCN(CC)CC2)ccc1Nc1cc(N(C)C(=O)Nc2c(Cl)c(OC)cc(OC)c2Cl)ncn1 [PCM-0215942] | 19.3 |  |
| CC(C)(CO)c1cc2cc(NC(=O)C3(c4ccc5c(c4)OC(F)(F)O5)CC3)c(F)cc2n1C[C@@H](O)CO [PCM-0095580] | -27.8 |  |
